Assay results reported in article PMC7702303, “Biochemical and transcript level differences between the three human phosphofructokinases show optimisation of each isoform for specific metabolic niches” (Biochemical Journal, 2020).
“And” between values parts separate entries of the source, which are not always exact repeats. Equal values may be shown once. Read-outs that look alike come from different tables or passages of the source.

How the values were obtained:
recombinant human PFK-M = biological target: T1, recombinant human PFK-M (Homo sapiens, UniProt P08237); assay: ALDO-TIM-G3PDH enzyme-linked kinetic assay, PFK-M; format: biochemical; parameters: VmaxATP + modulator / VmaxF6P + modulator / K0.5ATP + modulator / K0.5F6P + modulator: unit not given here
T1 construct: made in house; host or cells: PFK-deficient Saccharomyces cerevisiae
T1 sequence (P08237 1-780): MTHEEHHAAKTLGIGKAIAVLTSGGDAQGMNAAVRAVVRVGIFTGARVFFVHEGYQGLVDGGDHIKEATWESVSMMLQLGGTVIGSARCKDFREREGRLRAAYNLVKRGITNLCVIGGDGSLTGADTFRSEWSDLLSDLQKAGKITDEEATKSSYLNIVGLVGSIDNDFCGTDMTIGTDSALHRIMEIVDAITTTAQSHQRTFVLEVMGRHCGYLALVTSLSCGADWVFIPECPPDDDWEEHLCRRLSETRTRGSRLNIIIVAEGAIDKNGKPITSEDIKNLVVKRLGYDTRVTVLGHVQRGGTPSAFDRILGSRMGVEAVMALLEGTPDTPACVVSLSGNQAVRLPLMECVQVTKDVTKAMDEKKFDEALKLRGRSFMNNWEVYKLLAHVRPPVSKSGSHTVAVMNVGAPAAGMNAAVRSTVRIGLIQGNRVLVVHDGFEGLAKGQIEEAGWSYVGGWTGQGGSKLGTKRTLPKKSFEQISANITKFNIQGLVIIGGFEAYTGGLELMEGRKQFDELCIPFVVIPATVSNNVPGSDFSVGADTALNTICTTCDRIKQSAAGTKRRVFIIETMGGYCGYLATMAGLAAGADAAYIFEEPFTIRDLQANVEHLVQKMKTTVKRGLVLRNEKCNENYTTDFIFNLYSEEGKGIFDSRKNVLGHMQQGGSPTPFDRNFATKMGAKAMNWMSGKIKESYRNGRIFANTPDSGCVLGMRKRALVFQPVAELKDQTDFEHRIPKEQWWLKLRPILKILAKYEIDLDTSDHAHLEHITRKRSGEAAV
Protocol: Recombinant human PFKs were expressed in PFK-deficient Saccharomyces cerevisiae and purified using the methods described previously, adapting earlier materials and protocols. Production of PFK intended for use in ATP titration experiments used 1 mM F6P as a tetramer stabilising agent in protein purification and storage buffers. Production of PFK intended for use in F6P titration experiments used 1 mM ATP as a tetramer stabilising agent in protein purification and storage buffers. Experimental details on the purification and characterisation procedures including figures showing SDS–PAGE gels of the highly pure PFKs used in the kinetic experiments described in this work have been recently published.
Assay buffer consisted of 50 mM TEA, 100 mM KCl, 10 mM MgCl2, 1 mM Tris(2-carboxyethyl)phosphine hydrochloride (TCEP), 10% glycerol, pH 7.4. Assay mix consisted of 5 units/ml glycerol-3-phosphate dehydrogenase (G3PDH, Sigma–Aldrich G6880), 2.5 units/ml aldolase (Sigma–Aldrich A2714), 25 units/ml triosephosphate isomerase (TIM, Sigma–Aldrich T6258), and 1.25 mM NADH. ATP and F6P were obtained from Sigma–Aldrich (A2383 and F3627, respectively). For ATP titrations, 38 µl of buffer or ligand were added to a clear non-binding 96-well plate. 40 µl of assay mix containing 10 mM F6P (final concentration 4 mM) was added and the plate was incubated at 25°C for 5 min. An amount of 2 µl of PFK isoforms were added to each well from stock concentrations of 150 µg/ml and the reaction was immediately started with 20 µl of ATP at varying concentrations. For F6P titrations, 30 µl of buffer or ligand was added to a clear non-binding 96-well plate. An amount of 40 µl of assay mix containing 1.25 mM ATP (final concentration 0.5 mM) was added and the plate was incubated at 25°C for 5 min. An amount of 5 µl of PFK isoforms were added to each well from stock concentrations of 200 µg/ml and the reaction was immediately started with 20 µl F6P at varying concentrations. All ligands and substrates (including ATP) were used at pH 7.4. All metabolites were obtained from Sigma–Aldrich unless otherwise stated. […] A SpectraMax M5 Multi-Mode Microplate Reader was used to measure A340nm at 13 s intervals for 10 min. All experiments were performed in triplicate unless otherwise stated.
Time-dependent absorbance change was converted into rate of NADH oxidation (µM s^−1) or specific activity (µmol min^−1 mg protein^−1) using the Beer-Lambert law (molar extinction coefficient of NADH 6.22 mM^−1 cm^−1). The initial rate of reaction was used to avoid accumulation of ADP, which activates PFK, interfering with the determination of kinetic properties. Non-linear regression analysis was performed on substrate titration data using GraphPad Prism 7, with curves fitted using allosteric sigmoidal models, enabling determination of steady-state kinetic values.

PFKP = conditions: cited from earlier work
PFKL = conditions: cited from earlier work
PFKM = conditions: cited from earlier work; for IC50 or AC50 (activator) / IC50: PFKM; for IC50: read-out: IC50 or AC50 (inhibitor); for KmF6P: PFK-M
PFK-M (rat heart) = test system: PFK-M (rat heart); parameters: method as in Moreno-Sanchez et al(10) 2012; conditions: tissue supernatant, ATP 550-700M, ref Moreno-Sanchez et al(10) 2012; cited from earlier work
PFK-P (HeLa cell) = test system: PFK-P (HeLa cell); parameters: method as in Moreno-Sanchez et al(10) 2012; conditions: tissue supernatant, ATP 550-700M, ref Moreno-Sanchez et al(10) 2012; cited from earlier work
[1] = ref Sanchez-Martinez et al., 2000
[2] = ATP titration, F6P 4 mM, n = 6, mean (SD)
[3] = ref Foe and Kemp, 1985, read-out: IC50 or AC50 (inhibitor)
[4] = ref Vora 1985, read-out: IC50 or AC50 (inhibitor)
[5] = modulator 10 µM, ATP 0.5mM, N=3, mean (SD)
[6] = modulator 10 µM, F6P 4mM, N=3, mean (SD)
[7] = GTP titration, F6P 4 mM, n = 3, mean (SD)

Nc1ncnc2c1ncn2[C@@H]1O[C@H](COP(=O)(O)OP(=O)(O)O)[C@@H](O)[C@H]1O [ADP]
effect on PFK activity, in words (recombinant human PFK-M): inhibiting
change in kcat^ATP/K0.5^ATP compared with control PFK without modulator (recombinant human PFK-M; modulator 600 µM): −52%
change in kcat^F6P/K0.5^F6P compared with control PFK without modulator (recombinant human PFK-M; modulator 600 µM): −13%

Nc1ncnc2c1ncn2[C@@H]1O[C@H](COP(=O)(O)O)[C@@H](O)[C@H]1O [AMP]
IC50 or AC50 (activator) (PFKP; ref Foe and Kemp, 1985): 75 µM
IC50 or AC50 (activator) (PFKP; [1]): 8 µM
IC50 or AC50 (activator) (PFKL; ref Foe and Kemp, 1985): 10 µM
IC50 or AC50 (activator) (PFKM; ref Foe and Kemp, 1985): 10 µM
decrease in K0.5^F6P by AMP (recombinant human PFK-M; F6P titration): near two-fold decrease
change in kcat^ATP/K0.5^ATP compared with control PFK without modulator (recombinant human PFK-M; modulator 1200 µM): −12%
change in kcat^F6P/K0.5^F6P compared with control PFK without modulator (recombinant human PFK-M; modulator 1200 µM): −25%

Nc1ncnc2c1ncn2[C@@H]1O[C@H](COP(=O)(O)OP(=O)(O)OP(=O)(O)O)[C@@H](O)[C@H]1O [ATP]
decrease in specificity constant (ATP inhibition) (recombinant human PFK-M; 1 mM ATP compared with 0.5 mM ATP): 21%
increase in specific activity (recombinant human PFK-M; ATP concentration from 0.25 mM to 0.5 mM): 23%
decrease in specific activity (recombinant human PFK-M; ATP concentration from 0.5 mM to 1 mM): 21%
K0.5^ATP (recombinant human PFK-M; [2]): 151 µM and 152 µM and 151.8 (10.0) µM
Vmax^ATP (recombinant human PFK-M; [2]): 38.4 (0.9) µmoles/min.mg
kcat^ATP (recombinant human PFK-M; [2]): 56.0 (1.2) s^−1
kcat^ATP/K0.5^ATP (recombinant human PFK-M; [2]): 0.37 s^−1 µM^−1 and 0.37 (0.12) s^−1 µM^−1
h (ATP) (recombinant human PFK-M; Hill value, ATP titration, F6P 4 mM, n = 6, mean (SD)): 1.03 (0.05)

O=C(O)CC(O)(CC(=O)O)C(=O)O [Citrate]
IC50 (PFKP; [3]): 750 µM
IC50 (PFKP; ref Sanchez-Martinez et al., 2000, read-out: IC50 or AC50 (inhibitor)): 400 µM
IC50 (PFKP; [4]): 80 µM
IC50 (PFKL; [3]): > 2000 µM
IC50 (PFKL; [4]): 180 µM
IC50 (PFKM; ref Foe and Kemp, 1985): 100 µM
IC50 (PFKM; ref Vora 1985): 130 µM
IC50 (recombinant human PFK-M; dose-response, read-out: IC50^citrate): 982 ± 109 µM
change in kcat^ATP/K0.5^ATP compared with control PFK without modulator (recombinant human PFK-M; modulator 600 µM): +5%
change in kcat^F6P/K0.5^F6P compared with control PFK without modulator (recombinant human PFK-M; modulator 600 µM): −36%

O=C(CO)[C@@H](O)[C@H](O)[C@H](O)COP(=O)(O)O [F6P, fructose 6-phosphate]
KmF6P (PFK-M (rat heart)): 145 µM
KmF6P (PFKM; partially purified tissue, ATP 1000M, ref Dunaway et al(8) 1988): 2000 µM
KmF6P (PFKM; purified tissue, ATP 500M, ref Meienhofer et al(7) 1980): 1800 µM
KmF6P (PFKM; recombinant (yeast), ATP 5000M, ref Sanchez-Martinez et al(9) 2000): 2000 µM
KmF6P (PFK-P (HeLa cell)): 1100 µM
K0.5^F6P (recombinant human PFK-M; F6P titration, ATP 0.5 mM, n = 6, mean (SD)): 147 µM and 147.1 (13.6) µM

O=P(O)(O)OC[C@H]1O[C@@](CO)(OP(=O)(O)O)[C@@H](O)[C@@H]1O [F26BP, fructose 2,6-bisphosphate]
IC50 or AC50 (activator) (PFKP; ref Foe and Kemp, 1985): 4.5 µM
EC50 (PFKP; ref Sanchez-Martinez et al., 2000, read-out: Kact): 2.2 µM
IC50 or AC50 (activator) (PFKP; unit inferred, ref Vora 1985): 100 µM
IC50 or AC50 (activator) (PFKL; ref Foe and Kemp, 1985): 0.05 µM
IC50 or AC50 (activator) (PFKL; ref Van Schaftingen et al 1981): 0.04 µM
IC50 or AC50 (activator) (PFKL; unit inferred, ref Vora 1985): 100 µM
IC50 or AC50 (activator) (PFKM; ref Foe and Kemp, 1985): 0.05 µM
IC50 or AC50 (activator) (PFKM; unit inferred, ref Vora 1985): 10 µM
effect on PFK activity, in words (recombinant human PFK-M): strongly activated
allosteric constant K0.5^ATP+F26BP/K0.5^ATP (recombinant human PFK-M; ATP titration): 1.10
AC50 (recombinant human PFK-M; activation, read-out: AC50^F26BP): 6.27 µM
change in kcat^ATP/K0.5^ATP compared with control PFK without modulator (recombinant human PFK-M; modulator 10 µM): −7.4%
change in kcat^F6P/K0.5^F6P compared with control PFK without modulator (recombinant human PFK-M; modulator 10 µM): +82%
K0.5F6P + modulator (recombinant human PFK-M; [5]): 109.6 (5.3)
VmaxF6P + modulator (recombinant human PFK-M; [5]): 5.81 (0.09)
K0.5ATP + modulator (recombinant human PFK-M; [6]): 165.2 (9.2)
VmaxATP + modulator (recombinant human PFK-M; [6]): 38.80 (0.75)

Nc1nc2c(ncn2[C@@H]2O[C@H](COP(=O)(O)OP(=O)(O)OP(=O)(O)O)[C@@H](O)[C@H]2O)c(=O)[nH]1 [GTP]
K0.5^GTP (recombinant human PFK-M; [7]): 97 µM and 96.7 (8.0) µM
Vmax^GTP (recombinant human PFK-M; [7]): 17.82 (0.44) µmoles/min.mg
kcat^GTP (recombinant human PFK-M; [7]): 26.0 (0.6) s^−1
kcat^GTP/K0.5^GTP (recombinant human PFK-M; [7]): 0.27 s^−1 µM^−1 and 0.27 (0.08) s^−1 µM^−1
h (GTP) (recombinant human PFK-M; Hill value, GTP titration, F6P 4 mM, n = 3, mean (SD)): 1.19 (0.12)

C=C(OP(=O)(O)O)C(=O)O [PEP, phosphoenolpyruvate]
Ki (PFKP; [1]): 2780 µM
change in kcat^ATP/K0.5^ATP compared with control PFK without modulator (recombinant human PFK-M; modulator 1100 µM): −11%
change in kcat^F6P/K0.5^F6P compared with control PFK without modulator (recombinant human PFK-M; modulator 1100 µM): −7%
